Patent publication US12655108B2, “Heterocyclic compound as TYK2 pseudokinase domain inhibitor, synthetic method, and use” (ZHEJIANG WENDA PHARMA TECHNOLOGY LTD., priority 2021, dated 2026)

Columns and labels:
[1] = tested on: pSTAT5 in CD3+ cells (IFN-α stimulated); test: Inhibition of IFN-α-induced pSTAT5 expression in CD3+ cells of human whole blood, FACS detection; assay type: cell-based; conditions: 0.25 h, fresh human whole blood, IFN-α 20 ng/ml, 15 minutes
Method: The Inhibitory Effect of Compounds on the expression of pSTAT5 in CD3+ Cells Using FACS Detection • 1. Experimental Materials and instruments: • 1.1. Experimental reagents • DMSO, Sigma, Cat #D2650-100 ml, stored at room temperature. • Perm buffer III, BD Biosciences, Cat #558050, stored at 4° C. • Lyse/Fix buffer, BD Biosciences, Cat #558049, stored at room temperature. • EDTA, Invitrogen, Cat #15575-038, stored at room temperature. • PBS, Hyclone, Cat #SH30256.01, stored at 4° C. • PE Mouse Anti-Human CD3, BD Biosciences, Cat #555333, stored at 4° C. • Mouse anti-human Phospho-STATS (pY694) (Alexa Fluor® 647 Conjugate), BD Biosciences, Cat #562076, stored at 4° C. • IFN-α, Biolegend, Cat #592702 • 1.2 Experimental consumables • Microplate, 96 Well, PP, v-bottom, Greiner, Cat #GN651201-100EA. • 5 ml polystyrene round bottom tube, FALCON, Cat #04318011. • 96 square well storage plate, Thermo, Cat #AB-0661. • 96-well plate, Corning, Cat #3599. • 1.3 Instruments • CO2 cell incubator: MCO-15AC (Thermo) • Pipette: 0.2-10 μL, 20-200 μL, 200-1000 μL (Thermo) • Multichannel pipette: 0.2-10 μL, 5-50 μL, 20-300 μL (Raining) • Centrifuge: Thermo Centrifuge ST 40R; Thermo LEGEND Micro 21R • Water system: Millipore Milli-Q Reference system • Freezer: Haier ultralow temperature freezer • Haier 4 centigrade refrigerator • Haier −20 centigrade freezer • Vortex: EARTH REQUIRED • Plate Shaker: QI LIN BEI ER; MH-2 • Flow Cytometer: BD FACSVerse™ Flow Cytometer • 2 Experimental method: • 2.1 Compound Dilution • 1) On the day of experiment, the compound was prepared into a 10 mM solution with DMSO, diluted to 1.5 mM with DMSO, and then diluted to 8 gradient concentrations with 3-fold dilutions. • 2) 5 μl of diluted compound was transferred into 120 ul of DPBS solution with 0.1% BSA. • 3) Positive and negative control groups were set up, with an addition of 0.5% DMSO to the positive and negative control groups. • 2.2 Experimental procedure • 1) 67.5 ul of fresh human whole blood was added to the 96-well cell culture plate. • 2) 3.5 ul of diluted compound was added and mixed well. • 3) Incubating in a 37° C. incubator for 60 minutes. • 4) IFN-α was diluted in DPBS containing 0.1% BSA to 400 ng/ml, and PE anti-hCD3 antibody was diluted in DPBS containing 0.1% BSA to 5-fold. After the above 60-minute incubation, diluted PE anti-hCD3 antibody was added at 5 ul per well and diluted IFN-α was added at 4 ul per well, i.e., the final concentration of IFN-α per well was 20 ng/ml. • 5) Incubating in a 37° C. incubator for 15 minutes. • 6) All cells were transferred to a 96-well deep well plate and 1 ml of 37° C. preheated lysis/fix buffer was added. • 7) Incubating at 37° C. in dark for 10 minutes. • 8) Centrifuging at 600 g for 5 minutes and then the supernatant was discarded. Washing by adding 1 ml PBS for twice and centrifuging. • 9) 1 ml of Perm buffer III was added to cell precipitation. • 10) Incubating at 37° C. in dark for 30 minutes. • 11) Centrifuging at 600 g for 5 minutes and then the supernatant was discarded. Washing by adding 1 ml PBS for twice and centrifuging. • 12) APC anti-human pSTAT5 antibody was diluted in staining buffer, and then added to cell wells at 100 ul per well and mixed well. • 13) Incubating at room temperature for 40 minutes. • 14) Staining buffer was added and washed twice, 1 ml for each well, centrifuging at 600 g for 5 minutes. • 15) After discarding the supernatant, the cell precipitation was resuspended in 300 ul of staining buffer. • 16) Sample loading and analysing in a flow cytometer.

TYK2(JH1) = biological target: T1, TYK2(JH1) (Homo sapiens, UniProt P29597); test: Kinase (JH1) experiment, TYK2(JH1); assay type: biochemical
T1 construct: TYK2-JH1 (the kinase domain of TYK2)
T1 sequence (P29597 897-1176 limits assumed): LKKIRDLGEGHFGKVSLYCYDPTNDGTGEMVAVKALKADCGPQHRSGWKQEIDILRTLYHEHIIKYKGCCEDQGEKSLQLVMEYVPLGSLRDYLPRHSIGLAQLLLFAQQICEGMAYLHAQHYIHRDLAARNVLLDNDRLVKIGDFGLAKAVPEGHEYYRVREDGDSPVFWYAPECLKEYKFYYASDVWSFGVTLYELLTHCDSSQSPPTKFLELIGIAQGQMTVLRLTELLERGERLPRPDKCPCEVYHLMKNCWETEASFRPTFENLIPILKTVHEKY
Method: (§1) • 1. Experimental method • 1.1. Pseudokinase (JH2) experiment operation was as follows: • 1.1.1. The compound was dissolved with DMSO to a storage concentration of 10 mM. • 1.1.2. A compound concentration of 200 times the final concentration was prepared in a compound dilution plate, which was diluted from the highest concentration point with a total of 4 concentration points using the 27 times dilution method, and then transferred to the Echo plate. • 1.1.3. The compound was flushed from the Echo plate to the 384 well experimental plate using an Echo instrument, thereby obtaining a total of 11 concentration points of the compound with three-fold dilution matrix. • 1.1.4. 5 ul of TYK2-JH2 or JAK1-JH2 pseudokinase, 3 times the final concentration, was added to the 384-well experimental plate. • 1.1.5. 5 ul of Tb, 3 times the final concentration, was added to the 384-well experimental plate. • 1.1.6. 5 ul of Tracer, 3 times the final concentration, was added to the 384-well experimental plate. • 1.1.7. Centrifuging for 30 seconds and incubating at room temperature for 60 minutes. • 1.1.8. The fluorescence ratio of 520 nm to 495 nm was read using Envision Microplate Reader (PerkinElmer). • 1.2. Kinase (JH1) experiment operation was as follows: • 1.2.1. […] The fluorescence ratio at 665 nm and 615 nm were read using Envision Microplate Reader (PerkinElmer). • 1.3. […]

TYK2(JH2) = TYK2(JH2) (Homo sapiens, UniProt P29597); test: Pseudokinase (JH2) experiment with Tb/Tracer, TYK2-JH2; assay type: binding
Sequence of TYK2(JH2) (P29597 589-875 limits assumed): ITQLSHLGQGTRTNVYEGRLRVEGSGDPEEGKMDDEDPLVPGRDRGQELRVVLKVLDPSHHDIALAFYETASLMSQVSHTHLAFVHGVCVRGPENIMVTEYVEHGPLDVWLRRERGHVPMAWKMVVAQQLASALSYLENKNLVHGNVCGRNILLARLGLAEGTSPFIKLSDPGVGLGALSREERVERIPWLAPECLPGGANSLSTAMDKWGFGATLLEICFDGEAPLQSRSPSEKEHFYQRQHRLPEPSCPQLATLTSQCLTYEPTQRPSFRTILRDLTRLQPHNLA
Method: as §1

JAK1(JH1) = biological target: T2, JAK1(JH1) (Homo sapiens, UniProt P23458); test: Kinase (JH1) experiment, JAK1(JH1); assay type: biochemical
T2 construct: JAK1-JH1 (the kinase domain of JAK1)
T2 sequence (P23458 875-1153 limits assumed): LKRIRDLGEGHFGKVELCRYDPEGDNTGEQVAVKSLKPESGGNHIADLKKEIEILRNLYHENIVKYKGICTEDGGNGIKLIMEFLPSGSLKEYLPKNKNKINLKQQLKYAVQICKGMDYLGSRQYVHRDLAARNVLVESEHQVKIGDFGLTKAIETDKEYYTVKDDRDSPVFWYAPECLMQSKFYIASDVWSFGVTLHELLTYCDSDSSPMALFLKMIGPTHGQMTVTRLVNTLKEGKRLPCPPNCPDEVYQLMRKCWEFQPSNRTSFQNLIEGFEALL
Method: as §1

JAK1(JH2) = JAK1(JH2) (Homo sapiens, UniProt P23458); test: Pseudokinase (JH2) experiment with Tb/Tracer, JAK1-JH2; assay type: binding
Sequence of JAK1(JH2) (P23458 583-855 limits assumed): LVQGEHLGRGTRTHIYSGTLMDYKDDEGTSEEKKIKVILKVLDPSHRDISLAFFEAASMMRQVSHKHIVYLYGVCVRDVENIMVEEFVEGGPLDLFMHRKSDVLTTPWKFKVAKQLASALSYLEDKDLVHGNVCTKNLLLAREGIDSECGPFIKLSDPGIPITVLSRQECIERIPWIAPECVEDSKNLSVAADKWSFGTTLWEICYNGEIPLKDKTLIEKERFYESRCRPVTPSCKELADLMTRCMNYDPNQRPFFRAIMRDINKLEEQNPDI
Method: as §1

JAK2(JH1) = biological target: T3, JAK2(JH1) (Homo sapiens, UniProt O60674); test: Kinase (JH1) experiment, JAK2(JH1); assay type: biochemical
T3 construct: JAK2-JH1 (the kinase domain of JAK2)
T3 sequence (O60674 849-1124 limits assumed): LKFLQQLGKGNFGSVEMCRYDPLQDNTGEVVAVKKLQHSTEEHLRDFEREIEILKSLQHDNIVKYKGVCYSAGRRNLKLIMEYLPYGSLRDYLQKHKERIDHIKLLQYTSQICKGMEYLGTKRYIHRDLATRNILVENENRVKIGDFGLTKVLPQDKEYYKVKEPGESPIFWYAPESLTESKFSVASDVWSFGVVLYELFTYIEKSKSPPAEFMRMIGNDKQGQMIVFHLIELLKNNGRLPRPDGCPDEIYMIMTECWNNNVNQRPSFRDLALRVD
Method: as §1

JAK3(JH1) = biological target: T4, JAK3(JH1) (Homo sapiens, UniProt P52333); test: Kinase (JH1) experiment, JAK3(JH1); assay type: biochemical
T4 construct: JAK3-JH1 (the kinase domain of JAK3)
T4 sequence (P52333 822-1111 limits assumed): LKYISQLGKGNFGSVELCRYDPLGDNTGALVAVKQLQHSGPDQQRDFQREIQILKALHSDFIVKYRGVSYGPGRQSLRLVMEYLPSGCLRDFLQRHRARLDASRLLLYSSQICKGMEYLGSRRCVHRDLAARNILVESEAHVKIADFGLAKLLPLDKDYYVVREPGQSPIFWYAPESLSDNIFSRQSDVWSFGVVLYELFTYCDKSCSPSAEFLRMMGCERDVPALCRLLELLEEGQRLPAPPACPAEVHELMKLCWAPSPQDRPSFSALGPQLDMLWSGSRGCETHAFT
Method: as §1

[2] = selectivity ratio versus TYK2-JH2

Question: Which IC50 [1] does the source give for `[2H]C([2H])([2H])NC(=O)c1nnc(NC(=O)C2CC2)cc1Nc1ccccc1S(=O)(=O)C1CC1` [Compound 1] here?
Answer: Its IC50 is 2800 nM.

Question: `[2H]C([2H])([2H])NC(=O)c1nnc(NC(=O)C2CC2)cc1Nc1nccnc1S(=O)(=O)C1CC1` [Compound 2] was tested. Which IC50 [1] did it give?
Answer: Its IC50 is 867 nM.

Question: Which IC50 [1] does the source give for `[2H]C([2H])([2H])NC(=O)c1nnc(NC(=O)C2CC2)cc1Nc1ncccc1S(=O)(=O)C1CC1` [Compound 3] here?
Answer: The IC50 was 64 nM.

Question: What about the IC50 (TYK2(JH1); kinase domain) of the same molecule?
Answer: Its IC50 is 4310 nM.

Question: And the “IC50Other/IC50TYK2-JH2, TYK2(JH1)” value (TYK2(JH1); [2])?
Answer: The value was 13480.

Question: What about the IC50 (TYK2(JH2); pseudokinase domain) of the same molecule?
Answer: The IC50 was 0.32 nM.

Question: What about the “IC50Other/IC50TYK2-JH2, TYK2(JH2)” value (TYK2(JH2); reference ratio, TYK2-JH2 versus itself) of the same molecule?
Answer: The value was 1.

Question: What about the IC50 (JAK1(JH1); kinase domain) of the same molecule?
Answer: The IC50 was 3190 nM.

Question: And the “IC50Other/IC50TYK2-JH2, JAK1(JH1)” value (JAK1(JH1); [2])?
Answer: Its value is 9955.

Question: What about the IC50 (JAK1(JH2); pseudokinase domain) of the same molecule?
Answer: The IC50 was 53.1 nM.

Question: And the “IC50Other/IC50TYK2-JH2, JAK1(JH2)” value (JAK1(JH2); [2])?
Answer: The value was 166.

Question: What about the IC50 (JAK2(JH1); kinase domain) of the same molecule?
Answer: Its IC50 is 2810 nM.

Question: And the “IC50Other/IC50TYK2-JH2, JAK2(JH1)” value (JAK2(JH1); [2])?
Answer: Its value is 8790.

Question: And the IC50 (JAK3(JH1); kinase domain)?
Answer: Its IC50 is 2380 nM.

Question: And the “IC50Other/IC50TYK2-JH2, JAK3(JH1)” value (JAK3(JH1); [2])?
Answer: Its value is 7432.

Question: How did the IC50 [1] turn out when `[2H]C([2H])([2H])NC(=O)c1nnc(NC(=O)C2CC23CC3)cc1Nc1ncccc1S(=O)(=O)C1CC1` (stereo not drawn) [Compound 4] was run?
Answer: Its IC50 is 168 nM.

Question: How did the IC50 [1] turn out when `[2H]C([2H])([2H])NC(=O)c1nnc(NC(=O)C2CC23CC3)cc1Nc1nccnc1S(=O)(=O)C1CC1` (stereo not drawn) [Compound 5] was run?
Answer: The IC50 was 2110 nM.

Question: `[2H]C([2H])([2H])NC(=O)c1cnc(NC(=O)C2CC2)cc1Nc1ncccc1S(=O)(=O)C1CC1` [Compound 6] was tested. Which IC50 [1] did it give?
Answer: Its IC50 is 128 nM.
